According to the supplement of paper PMC10307832:

Key:
Assay in all cases: relative viability (nuclei count vs DMSO), 5 days (fraction); higher = more cells survive
[1] = compound: COc1cc2nccc(Oc3ccc(NC(=O)C4(C(=O)Nc5ccc(F)cc5)CC4)cc3)c2cc1OC [Cabozantinib] + C[C@]1(O)C[C@@H](c2nc(-c3ccc4ccc(-c5ccccc5)nc4c3)c3c(N)nccn32)C1 [Linsitinib] (partner 1 µM)
Summary of the method: (§1)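 Lung cancer cell lines in 1536-well plates were dosed by pin tool the day after seeding, either with one drug alone or with a fixed anchor-drug dose plus five library-drug doses (not always all listed) in √10 steps. After 5 days, cells were fixed and their nuclei stained in one step (final 0.05% Triton X-100, 1% formaldehyde, 1 ug/ml Hoechst), then counted on 4× images. Relative viability is the nuclei count in treated wells divided by that in vehicle wells. Values are medians of duplicate plates.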

Zosuquidar + OSI-027 = compound: O[C@@H](COc1cccc2ncccc12)CN1CCN([C@@H]2c3ccccc3[C@@H]3[C@H](c4ccccc42)C3(F)F)CC1 [Zosuquidar] + COc1cccc2cc(-c3nc([C@H]4CC[C@H](C(=O)O)CC4)n4ncnc(N)c34)[nH]c12 [OSI-027] (partner 0.5 µM)
Summary of the method: as §1

Zosuquidar + Luminespib = compound: O[C@@H](COc1cccc2ncccc12)CN1CCN([C@@H]2c3ccccc3[C@@H]3[C@H](c4ccccc42)C3(F)F)CC1 [Zosuquidar] + CCNC(=O)c1noc(-c2cc(C(C)C)c(O)cc2O)c1-c1ccc(CN2CCOCC2)cc1 [Luminespib] (partner 0.01 µM)
Summary of the method: as §1

Zosuquidar + Pemetrexed = compound: O[C@@H](COc1cccc2ncccc12)CN1CCN([C@@H]2c3ccccc3[C@@H]3[C@H](c4ccccc42)C3(F)F)CC1 [Zosuquidar] + Nc1nc2[nH]cc(CCc3ccc(C(=O)N[C@@H](CCC(=O)O)C(=O)O)cc3)c2c(=O)[nH]1 [Pemetrexed] (partner 0.2 µM)
Summary of the method: as §1

Cell Line | relative viability ([1]; first compound 0.02 µM) | relative viability ([1]; first compound 0.06325 µM) | relative viability ([1]; first compound 0.2 µM) | relative viability ([1]; first compound 0.6325 µM) | relative viability ([1]; first compound 2 µM) | relative viability (Zosuquidar + OSI-027; first compound 0.01 µM) | relative viability (Zosuquidar + OSI-027; first compound 0.1 µM) | relative viability (Zosuquidar + OSI-027; first compound 0.3162 µM) | relative viability (Zosuquidar + OSI-027; first compound 1 µM) | relative viability (Zosuquidar + Luminespib; first compound 0.01 µM) | relative viability (Zosuquidar + Luminespib; first compound 0.1 µM) | relative viability (Zosuquidar + Luminespib; first compound 0.3162 µM) | relative viability (Zosuquidar + Luminespib; first compound 1 µM) | relative viability (Zosuquidar + Pemetrexed; first compound 0.01 µM) | relative viability (Zosuquidar + Pemetrexed; first compound 0.03162 µM) | relative viability (Zosuquidar + Pemetrexed; first compound 0.1 µM) | relative viability (Zosuquidar + Pemetrexed; first compound 0.3162 µM) | relative viability (Zosuquidar + Pemetrexed; first compound 1 µM) | relative viability (Zosuquidar + OSI-027; first compound 0.03162 µM) | relative viability (Zosuquidar + Luminespib; first compound 0.03162 µM)
NCI-H596 | 1.19 | 1.17 | 1.11 | 0.997 | 0.994 | 0.714 | 0.724 | 1.01 | 0.689 | 1.1 | 0.804 | 0.983 | 0.931 | 0.456 | 0.482 | 0.51 | 0.507 | 0.544 | – | –
NCI-H647 | 1.28 | 1.53 | 1.33 | 1.12 | 1.11 | 0.64 | 0.552 | 0.886 | 0.723 | 0.116 | 0.181 | 0.142 | 0.177 | 0.188 | 0.177 | 0.178 | 0.168 | 0.139 | 0.63 | 0.165
NCI-H650 | 0.846 | 1.02 | 1.05 | 0.971 | 0.774 | 0.514 | 0.433 | 0.553 | 0.576 | 0.96 | 0.809 | 0.777 | 0.904 | 0.764 | 0.757 | 0.834 | 1.18 | 0.921 | 0.477 | 0.764
NCI-H661 | 0.621 | 0.503 | 0.557 | 0.455 | 0.413 | 0.654 | 0.596 | 0.714 | 0.695 | 0.911 | 0.875 | 0.938 | 0.891 | 0.914 | 0.902 | 0.846 | 0.928 | 0.851 | 0.67 | 0.875
NCI-H838 | 1.03 | 1.04 | 1.1 | 0.943 | 0.821 | 0.411 | 0.303 | 0.38 | 0.41 | 0.329 | 0.28 | 0.304 | 0.284 | 0.239 | 0.236 | 0.254 | 0.251 | 0.268 | 0.323 | 0.328
NCI-H1355 | 0.827 | 0.855 | 0.799 | 0.806 | 0.697 | 0.395 | 0.299 | 0.449 | 0.386 | 0.741 | 0.644 | 0.822 | 0.824 | 1.01 | 1 | 0.916 | 1.11 | 1.03 | 0.409 | 0.752
NCI-H1395 | 1.25 | 1.27 | 1 | 1.13 | 0.958 | 0.653 | 0.552 | 0.797 | 0.677 | 0.685 | 0.618 | 0.349 | 0.818 | 0.718 | 0.983 | – | 1 | 0.811 | 0.578 | 0.656
NCI-H1437 | 1.12 | 1.26 | 1.06 | 1.13 | 0.982 | 0.865 | 0.765 | 1.12 | 0.871 | 1.1 | 1.05 | 1.13 | 1.11 | 0.331 | 0.311 | 0.303 | 0.296 | 0.337 | 0.889 | 1.14
